Source: article PMC8971402, “Author Correction: Effects of route of administration on oxytocin-induced changes in regional cerebral blood flow in humans” (Nature Communications, 2022)
Several values for one entry are separate records, joined by “and”; a condition that tells them apart may be missing. Identical values can stand only once.

Tests used:
[1] = in vivo
Description: We present a summary of three
(§1) parameters describing the pharmacokinetics of each treatment administration method. We
(§2) present the maximum plasmatic concentration achieved after dosing (Cmax), the area under the
(§3) curve (AUC) reflecting the magnitude of the variations of plasmatic oxytocin post-dosing and
(§4) the absolute bioavailability of oxytocin absorbed to the plasma, calculated as the dose-corrected
(§5) AUC of each intranasal administration divided by the dose-corrected AUC of the intravenous
(§6) administration. Data are presented as mean (1 standard error of the mean).

[2] = tested on: heart rate and heart rate variability; set-up: species or system humans; details: in vivo, iv
Description: Supplementary Table 4 – Percentage of observations satisfying quality control criteria for
the pulse plethysmography analysis. Following current recommendations for heart rate data
processing and analysis, if more than 5% of the beats required correction, then we decided to
exclude these periods of observation. In some rare cases where artefacts could not be corrected,
we only included the data if at least 5 min of acquisition free of artefacts could be analysed. In
this table, we present the percentage of total data available satisfying our quality control criteria
for each treatment method of administration and time-interval, so the reader can appreciate the
amount of data effectively used in the final analysis.
Time from last drug administration offset (minutes)
We determined time-interval, treatment, and treatment
x time-interval effects on a set of time domain (heart-rate (HR) and the root mean square of the successive differences (RMSSD), frequency domain
(low (LF) and high (HF) frequencies spectral powers and high/low frequency spectral power ratio (HF/LF)) and non-linear (Approximate entropy
(ApEn), the SD1 and SD2 lines from the Poincare Plot and the detrended fluctuation scaling exponents DFAα1 and DFAα2) analysis measures of
heart rate variability. We used a repeated measures two-way analysis of variance, using subjects, treatment and time as factors, and the Greenhouse- […]

[3] = Pharmacokinetics of plasmatic oxytocin after intravenous, nasal spray or nebulizer administration; details: for Concentration (plasma oxytocin): Condition IV, individual participants (Fig6A source data); for Bioavailability: individual participants, corrected source data (Fig6C)
Description: We present a summary of three
as §1, §2, §3, §4, §5, §6

AUC over the observation interval, intravenous OT infusion vs intranasal methods [1]: significantly higher AUC | Concentration (plasma oxytocin) ([3]; Sample 2, in pg/mL): 65.12 and 59.67 and 47.11 | Concentration (plasma oxytocin) ([3]; Sample 3): 0.0681 ng/mL | Concentration (plasma oxytocin) ([3]; Sample 4): 0.0539 ng/mL | Concentration (plasma oxytocin) ([3]; Sample 4, in pg/mL): 30.93 | Concentration (plasma oxytocin) ([3]; Sample 6, in pg/mL): 12.86 and 20.71 | Concentration (plasma oxytocin) ([3]; Sample 7): 0.00723 ng/mL and 0.00461 ng/mL | Concentration (plasma oxytocin) ([3]; Sample 8): 0.00377 ng/mL | Absolute bioavailability of OT absorbed to the plasma, standard nasal spray vs PARI SINUS nebulizer ([3]; corrected AUCs, paired t-test p = 0.438): no significant differences | Cmax ([3]; human, in vivo, iv, SEM): 0.0643 ng/mL
SMILES: CC[C@H](C)[C@@H]1NC(=O)[C@H](Cc2ccc(O)cc2)NC(=O)[C@@H](N)CSSC[C@@H](C(=O)N2CCC[C@H]2C(=O)N[C@@H](CC(C)C)C(=O)NCC(N)=O)NC(=O)[C@H](CC(N)=O)NC(=O)[C@H](CCC(N)=O)NC1=O [oxytocin]
Effect on heart rate and heart rate variability [2]: did not affect heart rate or heart rate variability | Bioavailability ([3]; Nebuliser): 31.90% and 10.30% and 3.30% and 7.94% and 12.67% and 62.94% and 5.39% and 6.53% and 8.236% and 4.17% and 6.07% and 5.20% and 6.82% and 10.22% and 6.95% and 32.80% | Bioavailability ([3]; Spray): 6.85% and 11.96% and 5.38% and 16.81% and 5.32% and 6.16% and 8.93% and 4.67% and 8.4323% and 12.50% and 14.77% and 6.29% and 7.56% and 11.34% and 5.36% and 37.05%
